Assay results as given in patent US20020012738A1, “Low calorie fat compositions” (priority 2000, published 2002).

Legend:
[1] = biological target: T1, porcine lipase (Sus scrofa, UniProt P00591); experiment: Hydrolysis by pancreatic lipase, organic solution assay; type: in vitro ADME; details: 30° C., tamyl alcohol, Bis-Tris propane buffer pH 7.8, 300 mg fat, unit assumed
T1 sequence (P00591 1-450): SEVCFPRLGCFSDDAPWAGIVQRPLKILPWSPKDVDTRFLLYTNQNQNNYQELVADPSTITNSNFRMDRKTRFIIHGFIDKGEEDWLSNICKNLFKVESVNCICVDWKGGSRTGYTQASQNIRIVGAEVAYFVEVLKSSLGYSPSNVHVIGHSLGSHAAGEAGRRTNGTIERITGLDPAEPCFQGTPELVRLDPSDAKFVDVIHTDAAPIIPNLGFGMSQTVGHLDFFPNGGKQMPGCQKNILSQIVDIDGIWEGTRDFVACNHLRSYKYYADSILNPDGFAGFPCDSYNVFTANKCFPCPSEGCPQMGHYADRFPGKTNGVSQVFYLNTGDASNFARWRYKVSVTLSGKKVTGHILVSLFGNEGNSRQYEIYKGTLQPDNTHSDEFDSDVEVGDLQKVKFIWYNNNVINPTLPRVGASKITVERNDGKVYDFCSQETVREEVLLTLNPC
Procedure: The digestibility of the wax esters derived from long chain and medium chain combinations (III and IV) of the present invention were done to compare with triolein and wax esters derived from long chain acids and long chain alcohols. The in-vitro assays were done using two emulsion systems as in the following procedure. Each digest was carried out with 300 mg of the fat/fat substitute, 9 ml of the ^tamyl alcohol, 0.5 ml of Bis-Tris propane buffer (10 mM, pH 7.8) and 0.5 ml of porcine lipase (20 mg/mi). The reaction was incubated at 30° C. and the reaction stopped by adding 1 ml aliquots to 3 ml of isopropanol/heptane/sulfuric acid (40/10/1). The product was extracted with heptane and analyzed by GC and GC-MS at 360° C.

[2] = biological target: T1, porcine lipase; experiment: Hydrolysis by pancreatic lipase, aqueous emulsion assay; type: in vitro ADME; details: 30° C., Bis-Tris propane buffer pH 7.8, HMPC, sodium cholate, 300 mg fat, unit assumed
Procedure: The digestibility of the wax esters derived from long chain and medium chain combinations (III and IV) of the present invention were done to compare with triolein and wax esters derived from long chain acids and long chain alcohols. The in-vitro assays were done using two emulsion systems as in the following procedure. A mixture of 300 mg of the fat/fat substitute, 4 ml of Bis-Tris propane buffer (10 mM, pH 7.8), 5 ml of hydroxyproylmethylcellulose (HMPC, […]), 0.5 ml of sodium cholate (0.1 M) were sonicated to disperse the fats and incubated at 30° C. Porcine lipase (0.5 ml, 20 mg/ml) was added. The analysis of the reaction was carried out as in the above organic solution assay.

Row | Structure (SMILES) | Hydrolysis by pancreatic lipase, Organic Solution Assay 24 hr [1] | Hydrolysis by pancreatic lipase, Aqueous Emulsion Assay 24 hr [2]
1 | CCCCCCCCCCCCCCCCCCCCOC(=O)CCCCC [Arachidyl caproate] | 2.2% | 4%
2 | CCCCCCCCCCCCCCCCCCCCOC(=O)CCCCCCC [Arachidyl caprylate] | 7.6% | 14.7%
3 | CCCCCCCCCCCCCCCCCCCC(=O)OCCCCCC [Hexyl arachidate] | 5.4% | 11.7%
4 | CCCCCCCC/C=C\CCCCCCCC(=O)OCC(COC(=O)CCCCCCC/C=C\CCCCCCCC)OC(=O)CCCCCCC/C=C\CCCCCCCC [Triolein, reference compound] | 69.2% | 93.3%
